The term EC50 denotes the midpoint of the concentration-response curve.

Here are results for 13 molecules from ChEMBL document CHEMBL6092182, “Enhanced Plasma Stability and Potency of Aryl/Acyloxy Prodrugs of a BTN3A1 Ligand” (ACS Med Chem Lett, 2024).

The nature of data set [1]: Prodrug conversion in human plasma assessed as formation of mono-anion metabolite by measuring metabolite peak intensity at 100 uM incubated for 1 hr by LCMS analysis. In kind it is ADME, cell-free.
The nature of data set [2]: Prodrug conversion in human K562 cells assessed as formation of mono-anion metabolite by measuring metabolite peak intensity at 100 uM incubated for 1 hr by LCMS analysis. It is filed as functional.
A short description of data set [3]: Stimulation of IL-2-treated human Vgamma9Vdelta2 T cell proliferation incubated for 72 hrs followed by compound washout measured after 11 days by flow cytometry. In kind it is functional, cell-based. On the technique in general: A flow cytometer gives signals particle by particle.
Data set [4] in a line: Stimulation of IL-2-treated human Vgamma9Vdelta2 T cell proliferation assessed as IFN-gamma release pretreated human […] cells with compound for 1 hr followed by compound washout and addition of washed K562 cells to medium containing Vgamma9Vdelta2 T cells measured after 20 hrs by ELISA. It is filed as functional, cell-based.
Data set [5] in a line: Stability in mouse plasma assessed as compound remaining measured after 2 hrs by MS analysis. It is filed as ADME, cell-free.
The nature of data set [6]: Stability in human plasma assessed as compound remaining at 100 uM measured after 2 hrs by MS analysis. It is filed as ADME, cell-free. As to conditions: for Stability: 2 h, 100 µM.
Data set [7] can be described thus: Prodrug conversion in human plasma assessed as formation of di-anion metabolite by measuring metabolite peak intensity at 100 uM incubated for 1 hr by LCMS analysis. It is filed as ADME, cell-free. Also on record: unit not given here.
The nature of data set [8]: Prodrug conversion in human K562 cells assessed as formation of di-anion metabolite by measuring metabolite peak intensity at 100 uM incubated for 1 hr by LCMS analysis. In kind it is functional.
A short description of data set [9]: Stability in human plasma assessed as half life at 100 uM by LCMS analysis. It is filed as ADME, cell-free.
Data set [10] in a line: Stability in mouse plasma assessed as half life measured after 2 hrs by MS analysis. It is filed as ADME, cell-free.
Data set [11] is described as follows: Stability in rat plasma assessed as compound remaining measured after 2 hrs by MS analysis. It is filed as ADME, cell-free.
A short description of data set [12]: Prodrug conversion in human K562 cells assessed as formation of Ac-monoanion metabolite by measuring metabolite peak intensity at 100 uM incubated for 1 hr by LCMS analysis. It is filed as functional.
The nature of data set [13]: Prodrug conversion in human plasma assessed as formation of Ac-monoanion metabolite by measuring metabolite peak intensity at 100 uM incubated for 1 hr by LCMS analysis. It is filed as ADME, cell-free.

The structures appear in SMILES notation.

Consider `C/C(=C\CCP(=O)(OCOC(=O)CC1CCOCC1)Oc1ccc(C(C)C)cc1)CO` (stereo unspecified), for which the Activity was 16000 in data set [1], 6600 in data set [2], 0 in [7] and 640 in [8]. The EC50 in [3] worked out at 0.53 nM; in data set [4], 2.2 nM. The Stability result in data set [5] is “Stable”; in data set [6], 0%.
With `C/C(=C\CCP(=O)(OCOC(=O)CC1CCOCC1)Oc1cccc2ccccc12)CO` (stereo unspecified), the Activity in [1] is recorded as 11000; in data set [2], 3200; in data set [7], 0; in data set [8], 690. For the same molecule, the t1/2 was 5.9 min in [9] and 5.6 min in [10]. Besides, the EC50 in data set [3] turned out to be 0.37 nM; in data set [4], 4.8 nM. Besides, the Stability entry is recorded as “Stable” in data set [5], 65% in data set [11] and 0% in data set [6].
On to `COc1ccc(C(=O)OCOP(=O)(CC/C=C(\C)COC(C)=O)Oc2ccc(C(C)C)cc2)cc1` (stereo unspecified), for which the Activity in data set [1] is 830; in data set [2], 3900; in data set [12] it was 18; in data set [13] it was 3500; in [7], 0; in [8], 360. Also, the t1/2 in [9] was 180 min. Also, the EC50 came out at 0.84 nM in [3] and 4.1 nM in data set [4]. Further, the Stability result in data set [5] is listed as “Stable”; in data set [6], 62%.
As for `CC(=O)OC/C(C)=C/CCP(=O)(OCOC(=O)CC1CCCCC1)Oc1ccc(C(C)C)cc1` (stereo unspecified), the Activity amounted to 330 in [1]; 3900 in [2]; 54 in [12]; 2400 in [13]; 0 in data set [7]; 410 in data set [8]. Also, the t1/2 in [9] stood at 750 min. Moreover, the EC50 in data set [3] was 0.54 nM; in data set [4], 3 nM. In addition, the figures for the Stability result in [5] and in data set [6] were “Stable” and 90%, respectively.
As to `C/C(=C\CCP(=O)(OCOC(=O)C1CCOCC1)Oc1ccc(C(C)C)cc1)CO` (stereo unspecified), the Activity in [1] amounted to 13000; in data set [2], 18000; in data set [7], 0; in data set [8], 1500. In addition, in data set [9], the t1/2 was 11 min. Moreover, the EC50 in [3] is 0.97 nM; in [4], 0.89 nM. For the same molecule, the Stability result in [5] is recorded as “Stable”; in data set [6], 0%.
Consider `CC(=O)OC/C(C)=C/CCP(=O)(OCOC(=O)CC1CCOCC1)Oc1ccc(C(C)C)cc1` (stereo unspecified), for which the Activity in data set [1] turned out to be 3000; in data set [2], 6300; in data set [12], 49; in [13], 6100; in data set [7] it was 0; in [8], 1000. Moreover, the t1/2 in [9] is recorded as 42 min. In addition, the EC50 was 0.44 nM in data set [3] and 3.5 nM in data set [4]. In addition, the Stability result in [5] was “Stable”; in [6], 28%.
With `COc1ccc(C(=O)OCOP(=O)(CC/C=C(\C)CO)Oc2ccc(C(C)C)cc2)cc1` (stereo unspecified), the Activity in data set [1] was determined as 5900; in data set [2], 6000; in [7], 0; in data set [8], 590. In addition, the t1/2 in data set [9] came out at 500 min. Besides, the EC50 in data set [3] worked out at 1.5 nM; in data set [4] it was 6.4 nM. In addition, the Stability result in data set [5] is on record as “Stable”; in data set [6] it was 71%.
Regarding `CC(=O)OC/C(C)=C/CCP(=O)(OCOC(=O)c1ccccc1)Oc1ccc(C(C)C)cc1` (stereo unspecified), the Activity turned out to be 300 in data set [1]; 8800 in data set [2]; 180 in data set [12]; 12000 in data set [13]; 0 in data set [7]; 870 in [8]. Moreover, in data set [9], the t1/2 is reported as 66 min. The figures for the EC50 in data set [3] and in data set [4] were 0.27 nM and 2.6 nM, respectively. Besides, the Stability result is on record as “Stable” in [5] and 34% in data set [6].
For `CC(=O)OC/C(C)=C/CCP(=O)(OCOC(=O)C1CCOCC1)Oc1ccc(C(C)C)cc1` (stereo unspecified), the Activity in data set [1] was 3200; in data set [2] it was 8200; in data set [12] it was 67; in [13] it was 9900; in data set [7], 0; in data set [8], 1700. The t1/2 in data set [9] was found to be 16 min. In addition, the EC50 came to 1.2 nM in [3] and 2.2 nM in [4]. Besides, the Stability entry in data set [5] is given as “Stable”; in data set [6], 0%.
As for `C/C(=C\CCP(=O)(OCOC(=O)c1ccccc1)Oc1ccc(C(C)C)cc1)CO` (stereo unspecified), the Activity in [1] is 7900; in [2], 10000; in [7] it was 0; in data set [8], 830. For the same molecule, the EC50 in data set [3] amounted to 0.43 nM; in [4], 7 nM. For the same molecule, the Stability result in data set [5] is reported as “Stable”; in data set [6] it was 13%.
In the case of `CC(=O)OC/C(C)=C/CCP(=O)(OCOC(=O)CC1CCOCC1)Oc1cccc2ccccc12` (stereo unspecified), the Activity in data set [1] amounted to 2800; in data set [2] it was 3000; in [12] it was 4; in [13], 2900; in data set [7], 0; in data set [8] it was 880. Also, in [9], the t1/2 amounted to 15 min. Besides, the EC50 in [3] stood at 0.66 nM; in data set [4] it was 5.4 nM. The Stability result in data set [5] is “Stable”; in data set [6], 7%.
`C/C(=C\CCP(=O)(OCOC(=O)CC1CCCCC1)Oc1ccc(C(C)C)cc1)CO` (stereo unspecified): the Activity in [1] is given as 4500; in data set [2], 4800; in data set [7], 0; in data set [8] it was 500. The t1/2 in data set [9] amounted to 94 min. In addition, the results for the EC50 in data set [3] and in data set [4] were 1.1 nM and 2.8 nM, respectively. For the same molecule, the Stability result in [5] is given as “Stable”; in data set [6], 80%.
With `C/C(=C\CCP(=O)(OCOC(=O)C1CCCCC1)Oc1ccccc1)CO` (stereo unspecified), the remaining at 2 h, 100 µM in [6] (read-out: Stability) stood at 0%.
